Data reported in publication PMC4400119 (Cancer chemotherapy and pharmacology, 2014).
Like-named read-outs stand apart in the source and are kept apart here.

Legend:
NCI-60 panel [1] = conditions: average response from all cell lines tested, cited from earlier work; for GI50: read-out: Potency, Mean GI50
[2] = target: soluble epoxide hydrolase (sEH); conditions: read-out: IC50 against sEH; cited from earlier work
PC-3 = experiment: MTT cell viability assay, PC-3; format: cell-based; conditions: Homo sapiens, PC-3, 72 h, read-out: EC50 cell viability, Prostate PC-3
Huh-7 [3] = experiment: Caspase-Glo 3/7 induction, Huh-7; format: cell-based, human
HepG2 cells [4] = experiment: Mitochondrial membrane depolarization and AIF release; format: cell-based, human; conditions: 30 μM, 6 h
HepG2 cells [5] = experiment: Cell viability with pan-caspase inhibitor Z-VAD-FMK co-treatment; format: cell-based, human; conditions: Z-VAD-FMK 20 μM pre-incubation 60 min, then 30 μM compound for 24 h
T47D = experiment: MTT cell viability assay, T47D; format: cell-based; conditions: Homo sapiens, 72 h, read-out: EC50 cell viability, Breast T47D
HepG2 [6] = experiment: Caspase-Glo 3/7 induction, HepG2; format: cell-based, human
SKBR3 = experiment: MTT cell viability assay, SKBR3; format: cell-based; conditions: Homo sapiens, SK-BR-3, 72 h, read-out: EC50 cell viability, Breast SKBR3
ACHN = experiment: MTT cell viability assay, ACHN; format: cell-based; conditions: Homo sapiens, 72 h, read-out: EC50 cell viability, Kidney ACHN
Raf-1 kinase = conditions: read-out: IC50 recombinant Raf-1 kinase inhibition; cited from earlier work
Huh-7 [7] = experiment: MTT cell viability assay, Huh-7; format: cell-based; conditions: Homo sapiens, Huh-7, 72 h, read-out: EC50 cell viability, Liver Huh-7
KM12 (colon cancer) = experiment: NCI-60 human tumor cell line screen, KM12; format: cell-based
EPHA1 = target: T1, EPHA1 (Homo sapiens, UniProt P21709); experiment: KinaseSeeker kinase screen, EPHA1; format: binding; conditions: 10 μM, compared with sorafenib
T1 sequence (P21709 26-976): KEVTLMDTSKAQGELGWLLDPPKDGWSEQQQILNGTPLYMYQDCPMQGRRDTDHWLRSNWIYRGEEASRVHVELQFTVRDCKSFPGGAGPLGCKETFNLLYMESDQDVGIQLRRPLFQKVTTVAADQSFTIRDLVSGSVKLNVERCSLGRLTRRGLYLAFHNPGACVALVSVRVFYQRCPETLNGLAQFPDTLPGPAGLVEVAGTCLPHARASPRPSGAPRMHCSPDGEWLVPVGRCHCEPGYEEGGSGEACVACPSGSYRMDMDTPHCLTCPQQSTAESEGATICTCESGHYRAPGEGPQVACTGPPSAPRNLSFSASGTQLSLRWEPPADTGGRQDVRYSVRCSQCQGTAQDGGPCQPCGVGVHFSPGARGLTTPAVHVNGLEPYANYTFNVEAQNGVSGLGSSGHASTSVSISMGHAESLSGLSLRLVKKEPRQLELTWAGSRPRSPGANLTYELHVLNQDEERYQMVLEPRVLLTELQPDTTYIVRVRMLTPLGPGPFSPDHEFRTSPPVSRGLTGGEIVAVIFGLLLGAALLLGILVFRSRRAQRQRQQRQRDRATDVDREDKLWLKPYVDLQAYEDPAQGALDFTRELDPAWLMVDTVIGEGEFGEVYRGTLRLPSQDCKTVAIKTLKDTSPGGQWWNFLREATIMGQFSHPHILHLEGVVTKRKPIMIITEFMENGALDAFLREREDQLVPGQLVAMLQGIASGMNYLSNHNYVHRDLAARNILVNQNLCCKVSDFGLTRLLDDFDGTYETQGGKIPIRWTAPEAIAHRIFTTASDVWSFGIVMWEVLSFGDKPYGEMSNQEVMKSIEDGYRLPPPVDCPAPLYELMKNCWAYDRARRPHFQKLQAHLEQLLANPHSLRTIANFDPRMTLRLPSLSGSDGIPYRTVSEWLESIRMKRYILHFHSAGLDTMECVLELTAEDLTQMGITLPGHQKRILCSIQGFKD

[8] = test system: oncogenic b-Raf (V600E) kinase; conditions: relative to sorafenib; cited from earlier work
HepG2 [9] = experiment: MTT cell viability assay, HepG2; format: cell-based, human
[10] = Pharmacokinetic study, cassette oral administration in mice; format: in vivo; conditions: oral 1 mg/kg
FGFR2 = FGFR2 (Homo sapiens, UniProt P21802); experiment: KinaseSeeker kinase screen, FGFR2; format: binding; conditions: 10 μM, compared with sorafenib
FGFR2, sequence (P21802 22-821): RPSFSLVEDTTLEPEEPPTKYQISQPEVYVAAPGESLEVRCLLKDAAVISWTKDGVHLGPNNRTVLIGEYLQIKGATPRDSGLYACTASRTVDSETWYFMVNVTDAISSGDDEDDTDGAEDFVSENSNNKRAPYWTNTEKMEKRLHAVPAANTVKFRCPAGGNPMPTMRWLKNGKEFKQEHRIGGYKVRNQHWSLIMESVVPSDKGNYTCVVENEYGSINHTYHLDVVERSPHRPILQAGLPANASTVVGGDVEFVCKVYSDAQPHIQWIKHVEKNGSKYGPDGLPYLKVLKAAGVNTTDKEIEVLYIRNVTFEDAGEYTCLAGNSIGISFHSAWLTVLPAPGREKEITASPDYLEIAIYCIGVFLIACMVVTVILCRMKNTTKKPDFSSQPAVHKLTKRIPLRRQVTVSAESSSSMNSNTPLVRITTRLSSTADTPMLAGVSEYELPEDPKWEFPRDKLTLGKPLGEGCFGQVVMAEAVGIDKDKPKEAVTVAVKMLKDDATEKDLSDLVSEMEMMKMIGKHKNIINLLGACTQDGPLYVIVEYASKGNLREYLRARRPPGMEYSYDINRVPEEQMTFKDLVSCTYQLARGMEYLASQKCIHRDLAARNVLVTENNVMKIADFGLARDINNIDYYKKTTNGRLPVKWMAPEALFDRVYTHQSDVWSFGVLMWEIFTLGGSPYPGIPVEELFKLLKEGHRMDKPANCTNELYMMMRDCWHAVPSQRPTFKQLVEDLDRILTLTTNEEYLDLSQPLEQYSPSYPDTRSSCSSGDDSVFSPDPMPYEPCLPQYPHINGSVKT

STAT3 phosphorylation = experiment: Western blot, STAT3 phosphorylation; format: cell-based, human; conditions: 10 μM, 24 h exposure
HepG2 cells [11] = experiment: Cell cycle analysis; format: cell-based, human; conditions: 30 μM, 24-h exposure
NCI-60 panel [12] = conditions: average response from all cell lines tested

Compound	Potency, Mean TGI50 (NCI-60 panel [1]) [µM]	GI50 (NCI-60 panel [1]) [µM]	EC50 (PC-3) [µM]	mitochondrial membrane depolarization and release of AIF (HepG2 cells [4])	effect of Z-VAD-FMK on compound-induced cell death (HepG2 cells [5])	EC50 (T47D) [µM]	EC50 (SKBR3) [µM]	EC50 (ACHN) [µM]	IC50 (Raf-1 kinase) [µM]	EC50 (Huh-7 [7]) [µM]	also measured
C#Cc1cccc(Nc2ncnc3cc(OCCOC)c(OCCOC)cc23)c1 [Erlotinib (Tarceva®)]	59	5.5									
CNC(=O)c1cc(Oc2ccc(NC(=O)Nc3ccc(Cl)c(C(F)(F)F)c3)cc2)ccn1 [Sorafenib]	6.0	1.9	5.5 ± 0.8	observed	no protective effect	3 ± 0.5	6.5 ± 0.5	4 ± 0.5	[…]	4.2 ± 0.5	IC50 [2]: 0.012 µM; lowest level at which caspase activation was observable (Huh-7 [3]; Huh-7, 72-h incubation): 0.1 µM; lowest level at which caspase activation was observable (HepG2 [6]; HepG2, 72-h incubation): 0.1 µM
CNC(=O)c1cc(O[C@H]2CC[C@H](NC(=O)Nc3ccc(Cl)c(C(F)(F)F)c3)CC2)ccn1 [t-CUPM]				observed	no protective effect				0.075		GI50 (KM12 (colon cancer)): 0.64 µM; caspase 3/7 induction (Huh-7 [3]; Huh-7, 25 μM, 72-h incubation): levels of caspase induction similar to sorafenib; kinase inhibitory activity toward EPHA1 (EPHA1): reduced its kinase inhibitory activity; loss in the activity toward oncogenic b-Raf (V600E) kinase [8]: 40 fold; EC50 relative to that of sorafenib (HepG2 [9]; cell viability, hepatoma cell lines HepG2 and Huh-7): < twofold; Cmax compared with sorafenib [10]: higher Cmax; AUCt compared with sorafenib ([10]; 0.5 to 48 h): significantly higher AUCt; blood levels relative to sorafenib ([10]; from 0.5 to 48 h): tenfold; caspase 3/7 induction (HepG2 [6]; HepG2, 25 μM, 72-h incubation): levels of caspase induction similar to sorafenib; kinase inhibitory activity toward FGFR2 (FGFR2): reduced its kinase inhibitory activity; suppression of STAT3 phosphorylation (STAT3 phosphorylation): not as effective as sorafenib; effect on cell cycle progression (HepG2 cells [11]): arrest in G0/G1 transition; Potency, Mean TGI50 (NCI-60 panel [12]): 34 µM; GI50 (NCI-60 panel [12]; read-out: Potency, Mean GI50): 9 µM
COc1cc2ncnc(Nc3ccc(F)c(Cl)c3)c2cc1OCCCN1CCOCC1 [Gefitinib (Iressa®)]	19	3.2									
Cc1ccc(NC(=O)c2ccc(CN3CCN(C)CC3)cc2)cc1Nc1nccc(-c2cccnc2)n1 [Imatinib (Gleevac®)]	43	15									
CCN(CC)CCNC(=O)c1c(C)[nH]c(/C=C2\C(=O)Nc3ccc(F)cc32)c1C [Sunitinib]	9.6	2.2	8 ± 0.5			12 ± 1	10 ± 0.9	8 ± 1		8 ± 0.9	EC50 (HepG2 [9]; Homo sapiens, HepG2, 72 h, read-out: EC50 cell viability, Liver HepG2): 7.5 ± 0.8 µM
